Experimental data: publication PMC9598407, “Identification of Staphylococcus aureus Penicillin Binding Protein 4 (PBP4) Inhibitors” (Antibiotics, 2022)

What was measured:
[1] = test system: Pseudomonas aeruginosa; experiment: Ceftobiprole susceptibility with compound, Pseudomonas aeruginosa; assay type: cell-based; settings: not shown
Method: As a means to further evaluate whether the compound affects PBP4 activity a series of assays were performed.

[2] = test system: S. aureus USA300; experiment: Triton X-100 susceptibility growth study; assay type: cell-based, Staphylococcus aureus; settings: wild type USA300, 12.5 µM compound
Excerpt: Cheung and colleagues have shown that S. aureus tolerance to Triton X-100 is mediated by PBP4 [25]. More directly, wild type cells are tolerant of 0.1% of the detergent, while pbp4 mutant cells are not. Accordingly, as a first test of whether 9314848 may affect PBP4’s cellular function, we evaluated whether compound treated wild type cells phenocopy the growth defect of pbp4 mutant cells in the presence of 0.1% triton X-100 (Figure 3B).
The effect of putative PBP4 inhibitors on bacterial growth in media supplemented with Triton X-100 was measured, as previously described. […] Cell suspensions were incubated at 37 °C with aeration and cell density (OD600nm) was recorded hourly for a total of 7–8 h.

[3] = test system: S. aureus USA300; experiment: µSiM-CA membrane transmigration; assay type: cell-based, Staphylococcus aureus
Method: Thus, we tested 9314848 for its ability to eliminate S. aureus migration through µSiM-CA membrane pores. […] Conversely, the USA300∆pbp4 strain was unable to efficiently transverse the membrane, verifying that PBP4 is required for S. aureus membrane transmigration, as previously reported. To evaluate whether 9314848 is capable of eliminating PBP4-associated S. aureus µSiM-CA membrane migration, 1 × 10^7 CFU wild type cells were incubated with 0, 3.125, 6.25, 12.5, or 25 µM of the compound for 2 h then applied to the top chamber of the device. Following incubation, cells in the top and bottom chambers were enumerated.
The effect of PBP4 inhibitors on S. aureus migration through 500 nm nanoporous membranes modeling the orifices of osteocyte lacuno-canalicular networks was investigated using a µSiM-CA device, as previously described. Briefly, µSIM-CA systems were fabricated by SiMPore Inc. (West Henrietta, NY, USA) to include a top and a bottom chamber that were separated by 400 nm thick silicon nitride membrane containing an array of 500 nm pores, allowing for quantification of bacteria that migrate from the apical (top) well to the basal (bottom) well. To measure bacterial migration through the device membrane, S. aureus strains USA300 or USA300∆pbp4 were grown overnight at 37 °C with aeration, diluted (1:100) in fresh MH media, and then grown to mid-exponential phase (OD600nm = 0.2) in the presence or absence of putative PBP4 inhibitor for approximately 2 h at 37 °C shaking with aeration. A total of 100 µL of cell mixture (~1 × 10^7 CFU) was transferred into the top reservoir of the device and incubated for 6 h at 37 °C. A total of 10 µL of media from the apical and basal reservoirs was collected, serial diluted in 0.8% NaCl, and plated on MH agar plates for bacterial enumeration.

[4] = test system: S. aureus strain CRB∆pbp4; experiment: Fractional inhibitory concentration checkerboard, ceftobiprole + putative PBP4 inhibitor, strain CRB∆pbp4; assay type: cell-based, Staphylococcus aureus
[5] = biological target: recombinant PBP4 (Bacillus subtilis, UniProt P40750); experiment: Gel electrophoresis BOCILLIN FL labeling of PBP4; assay type: binding
Chain of recombinant PBP4 (P40750 22-624): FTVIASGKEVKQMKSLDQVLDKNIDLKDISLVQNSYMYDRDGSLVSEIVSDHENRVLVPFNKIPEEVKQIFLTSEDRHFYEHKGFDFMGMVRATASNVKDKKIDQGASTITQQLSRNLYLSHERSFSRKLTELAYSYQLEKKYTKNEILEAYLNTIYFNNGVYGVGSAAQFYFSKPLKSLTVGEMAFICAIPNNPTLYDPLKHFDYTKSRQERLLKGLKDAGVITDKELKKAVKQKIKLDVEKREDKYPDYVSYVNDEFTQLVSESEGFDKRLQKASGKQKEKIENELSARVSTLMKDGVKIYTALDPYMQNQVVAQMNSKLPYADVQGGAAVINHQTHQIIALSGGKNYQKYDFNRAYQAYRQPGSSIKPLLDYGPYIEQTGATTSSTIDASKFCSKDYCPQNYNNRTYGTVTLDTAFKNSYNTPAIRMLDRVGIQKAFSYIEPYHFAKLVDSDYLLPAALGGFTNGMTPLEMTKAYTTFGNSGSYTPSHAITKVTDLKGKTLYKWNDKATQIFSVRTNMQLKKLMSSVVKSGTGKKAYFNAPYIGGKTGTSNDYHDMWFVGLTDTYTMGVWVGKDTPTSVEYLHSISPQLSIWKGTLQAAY
Method: A second, yet lower resolution, approach was used to verify the impact of 9314848 on PBP4 substrate binding in which the protein was preincubated with compound or control antibiotics then labeled with the BOCILLIN FL and resulting fluorescent labeled protein was visualized following gel electrophoresis.
The ability of putative PBP4 inhibitors to impact the active site of recombinant PBP4 was assessed using two previously established BOCILLIN-FL Penicillin (Penicillin V conjugated to BODIPY fluorescent dye) binding assays. First, fluorescence polarization assays were performed as previously described, but with minor modifications. Briefly, the indicated amount of the putative PBP4 inhibitor or control antibiotic was incubated with 1 µM recombinant B. subtilis PBP4 or S. aureus PBP2a in potassium phosphate buffer (40 mM K2HPO4 and 10 mM KH2PO4) for 1 h in black 96-well microtiter plates (Corning Life Sciences, Corning, NY, USA). Following incubation, 1 µM (final concentration) BOCILLIN FL penicillin was added, and the mixture was incubated for 30 min. BOCILLIN FL fluorescence polarization was measured at (495 nm excitation and 545 nm emission) in a SpectraMax M5 multimode plate reader (Molecular Devices, San Jose, CA, USA). All assays were repeated at least 8 times, averaged, and values falling outside of 2 standard deviations were considered outliers. The resulting data were plotted as percentage BOCILLIN FL binding inhibition = (T/U) × 100; T = FL polarization of ((PBP4+ BOCILLIN FL) − (PBP4+ BOCILLIN FL + inhibitor compound)), U = FL polarization of ((PBP4 + BOCILLIN FL) − (BOCILLIN FL)). Second, gel electrophoresis and fluorescence detection was used to measure BOCILLIN FL labeling of PBP4 treated with the known PBP4 inhibitor cefoxitin (positive control), kanamycin (negative control) or 9314848 (test compound), as previously described but with minor modifications. Briefly, 1 µM of recombinant PBP4 was mixed with 0, 50, 500, 2000, or 5000 µM 9314848 or control antibiotic in 50 mM phosphate buffer (pH 7.4) and incubated at 37 °C for 30 min. Next 40 μM of BOCILLIN FL was added to the reaction mixture and incubated for an additional 30 min at 37 °C. Reactions were stopped by adding 5× SDS-PAGE gel loading dye, heated at 100 °C for 3 min and separated by electrophoresis in 12% SDS-PAGE (2 h, 120 Volts). BOCILLIN FL labeled PBP4 was imaged at λ = 365 nm using a BioRad Gel Doc EZ Imaging system and the gel was then subsequently stained with Bio-safe Coomassie Brilliant Blue stain (BioRad, Hercules, CA, USA) to measure the amount of protein present in each reaction condition and analyzed using NIH-ImageJ software. The percent BOCILLIN FL binding was calculated by first normalizing the protein present in each reaction condition to that of untreated control and subsequently applying each reaction’s protein normalization factor to each reaction’s fluorescent signal. The percentage BOCILLIN FL binding inhibition was then calculated as the normalized band intensity of antibiotic/compound treated sample as compared to the control sample (PBP4 + BOCILLIN FL in the absence of compound).

Q: CC1CCN(C(=O)c2cccc(NC(=O)Nc3ccc(Cl)cc3)c2)CC1 [Compound 9314848] was tested. Which “Effect on ceftobiprole susceptibility” value [1] did it give?
A: no effect

Q: And the “Growth in the presence of Triton X-100” value ([2]; 0.1% Triton X-100)?
A: exhibited growth defect

Q: What about the “Growth in the absence of detergent” value ([2]; no Triton X-100) of the same compound?
A: did not display a growth defect

Q: What about the “Viability of cells within the top/treatment chamber” value ([3]; 0-25 µM compound) of the same compound?
A: did not affect the viability

Q: And the “Effect on S. aureus membrane transmigration” value ([3]; concentrations greater than 6.25 µM (2.5 µg/mL))?
A: completely inhibited

Q: And the “Effect on S. aureus membrane transmigration” value ([3]; ≤3.125 µM)?
A: no effect

Q: And the MIC ([4]; Staphylococcus aureus, read-out: CRB∆pbp4 Alone Cmpd (putative PBP4 inhibitor MIC alone))?
A: 400 µM

Q: And the “CRB∆pbp4 Combination BPR (ceftobiprole MIC in combination)” value ([4]; strain CRB∆pbp4, ceftobiprole combined with the indicated putative PBP4 inhibitor)?
A: 0.125 mg/L

Q: And the “CRB∆pbp4 Combination Cmpd (compound concentration in combination)” value ([4]; strain CRB∆pbp4, compound combined with ceftobiprole)?
A: 25 µM

Q: What about the “CRB∆pbp4 Fold-decrease in ceftobiprole resistance in combination” value ([4]; strain CRB∆pbp4, in combination with the indicated putative PBP4 inhibitor) of the same compound?
A: 2 fold

Q: And the inhibition at 50 µM ([5]; 50 µM compound, read-out: PBP4 BOCILLIN FL binding inhibition (gel-based))?
A: 37.5 ± 8.2%

Q: What about the inhibition at 5000 µM ([5]; 5000 µM compound, read-out: PBP4 BOCILLIN FL binding inhibition (gel-based)) of the same compound?
A: 72.1 ± 13.1%

Q: What about the “PBP4 BOCILLIN FL binding inhibition (gel-based) at low concentration” value ([5]; concentrations below 50 µM) of the same compound?
A: did not reproducibly demonstrate BOCILLIN FL binding inhibition
